# Measurements published in US10100282B2, “Differentiation of pluripotent cells” (FUJIFILM Cellular Dynamics, Inc., priority 2009, dated 2018).
# Tested on: hESCs
# Assay: Cytokine matrix: serum-free EB hematopoietic differentiation, surface markers by flow cytometry
# Type: cell-based, human
# Description: Cells were collected from each well/condition and washed once with media. The cell pellet was digested using TrypLE™ or 0.5% trypsin for 5-10 minutes in a 37° C. incubator followed by washes with media and passage through a 70-μm cell strainer. […] Non-viable cells were excluded with 7-aminoactinomycin D (7-AAD, BD Biosciences). Live cell analysis was performed on a FACSCalibur™ or Accuri flow cytometer and Cell Quest software. hESCs adapted to feeder free growth on matrigel maintained using mTESR were preconditioned for three days in the presence of X-vivo-15 containing 0.1 ng/ml TGF-β and 20 ng/ml FGF-2. Cells were harvested using TrypLE for 6 minutes at 37 C. TrypLE™ was neutralized using EB basal media containing 1 μM ROCK inhibitor (H-1152), Soybean trypsin inhibitor (0.25 mg/ml). The cells were washed once in EB basal media containing 1 μM ROCK inhibitor and soybean trypsin inhibitor (0.25 mg/ml). The cells were plated in low attachment plates in EB basal media containing 1 μM ROCK inhibitor and soybean trypsin inhibitor (0.25 mg/ml). The media was changed the next day to EB basal media containing different cytokine formulations. […] The cytokine combinations used are listed below in Table 3. The EB cultures were half fed with fresh differentiation media every two days. The EB cultures were harvested on day 8, 12 and 17 of differentiation. The EB cultures were harvested by spinning down all the cells and digesting the EBs with TrypLE™ or 0.5% trypsin. The phenotype of the progenitor cell types was analyzed by flow cytometry and the cells were plated in methylcellulose media for CFU assays. “FLT3” refers to the Flt3 ligand below.
Substance,"CD31 expressing cells (DAY 8, factor ABSENT)","CD34 expressing cells (DAY 8, factor ABSENT)","CD43 expressing cells (DAY 8, factor ABSENT)","CD45 expressing cells (DAY 8, factor ABSENT)","FLK-1 expressing cells (DAY 8, factor ABSENT)","CD31 expressing cells (DAY 8, factor PRESENT)","CD34 expressing cells (DAY 8, factor PRESENT)","CD43 expressing cells (DAY 8, factor PRESENT)","CD45 expressing cells (DAY 8, factor PRESENT)","FLK-1 expressing cells (DAY 8, factor PRESENT)","CD31 expressing cells (DAY 12, factor ABSENT)","CD34 expressing cells (DAY 12, factor ABSENT)","CD43 expressing cells (DAY 12, factor ABSENT)","CD45 expressing cells (DAY 12, factor ABSENT)","FLK-1 expressing cells (DAY 12, factor ABSENT)","CD31 expressing cells (DAY 12, factor PRESENT)","CD34 expressing cells (DAY 12, factor PRESENT)","CD43 expressing cells (DAY 12, factor PRESENT)","CD45 expressing cells (DAY 12, factor PRESENT)","FLK-1 expressing cells (DAY 12, factor PRESENT)",other results
EPO: Erythropoietin,0.8%,1.2%,1.0%,0.2%,2.2%,0.7%,1.1%,0.8%,0.2%,1.7%,2.2%,2.4%,2.1%,2.6%,0.8%,1.8%,2.0%,2.4%,1.5%,0.2%,"CD31 expressing cells (DAY 17, factor ABSENT): 4.6%; CD34 expressing cells (DAY 17, factor ABSENT): 2.5%; CD43 expressing cells (DAY 17, factor ABSENT): 5.0%; CD45 expressing cells (DAY 17, factor ABSENT): 4.8%; FLK-1 expressing cells (DAY 17, factor ABSENT): 1.6%; CD31 expressing cells (DAY 17, factor PRESENT): 8.8%; CD34 expressing cells (DAY 17, factor PRESENT): 2.4%; CD43 expressing cells (DAY 17, factor PRESENT): 9.1%; CD45 expressing cells (DAY 17, factor PRESENT): 8.9%; FLK-1 expressing cells (DAY 17, factor PRESENT): 2.1%"
GMCSF: Granulocyte-macrophage colony-stimulating factor,0.4%,1.0%,0.3%,0.2%,2.2%,1.1%,1.3%,1.4%,0.2%,1.7%,1.5%,1.0%,1.4%,1.3%,0.6%,2.4%,2.4%,3.0%,2.6%,0.4%,"CD31 expressing cells (DAY 17, factor ABSENT): 1.6%; CD34 expressing cells (DAY 17, factor ABSENT): 2.1%; CD43 expressing cells (DAY 17, factor ABSENT): 1.4%; CD45 expressing cells (DAY 17, factor ABSENT): 0.9%; FLK-1 expressing cells (DAY 17, factor ABSENT): 1.4%; CD31 expressing cells (DAY 17, factor PRESENT): 11.3%; CD34 expressing cells (DAY 17, factor PRESENT): 2.8%; CD43 expressing cells (DAY 17, factor PRESENT): 12.1%; CD45 expressing cells (DAY 17, factor PRESENT): 12.3%; FLK-1 expressing cells (DAY 17, factor PRESENT): 2.3%; role during EB differentiation (serum free hematopoietic differentiation, days 8, 12, 17): play a role during later stages of EB differentiation"
"IL6: Interleukin-6, a pro-inflammatory cytokine",0.8%,0.9%,0.8%,0.2%,1.2%,0.8%,1.4%,1.0%,0.2%,2.6%,1.4%,1.7%,1.2%,1.5%,0.5%,2.5%,2.6%,3.2%,2.4%,0.5%,"CD31 expressing cells (DAY 17, factor ABSENT): 3.8%; CD34 expressing cells (DAY 17, factor ABSENT): 1.8%; CD43 expressing cells (DAY 17, factor ABSENT): 4.1%; CD45 expressing cells (DAY 17, factor ABSENT): 4.1%; FLK-1 expressing cells (DAY 17, factor ABSENT): 1.1%; CD31 expressing cells (DAY 17, factor PRESENT): 9.4%; CD34 expressing cells (DAY 17, factor PRESENT): 3.0%; CD43 expressing cells (DAY 17, factor PRESENT): 9.9%; CD45 expressing cells (DAY 17, factor PRESENT): 9.6%; FLK-1 expressing cells (DAY 17, factor PRESENT): 2.5%"
